Values joined by “and” are separate entries in the source; they are usually repeats but may differ in a detail not shown here. Identical values can stand only once.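 Growth conditions: 96-well plates. Treatment: test compound, 48 hours, 5 concentrations. Analysis: linear interpolation between bracketing concentrations; unreached endpoints set to highest concentration. GI50 is the concentration that inhibits growth by half. TGI denotes the concentration required for complete inhibition of growth.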
Key:
Assay in all cases: NCI-60 cell line screen, 48 h
UACC-62 melanoma = system: UACC-62 melanoma
MCF7 breast = system: MCF7 breast
OVCAR-3 ovarian = system: OVCAR-3 ovarian
HT29 colon = system: HT29 colon
TK-10 renal = system: TK-10 renal
SK-MEL-28 melanoma = system: SK-MEL-28 melanoma
SNB-19 CNS = system: SNB-19 CNS
KM12 colon = system: KM12 colon
UACC-257 melanoma = system: UACC-257 melanoma
HCT-15 colon = system: HCT-15 colon
LOX IMVI melanoma = system: LOX IMVI melanoma
SW-620 colon = system: SW-620 colon
NCI-H226 lung = system: NCI-H226 lung
COLO 205 colon = system: COLO 205 colon
NCI-H23 lung = system: NCI-H23 lung
SK-OV-3 ovarian = system: SK-OV-3 ovarian
SNB-75 CNS = system: SNB-75 CNS
RXF 393 renal = system: RXF 393 renal

Compound	TGI (UACC-62 melanoma) [µM]	TGI (MCF7 breast) [µM]	TGI (OVCAR-3 ovarian) [µM]	TGI (HT29 colon) [µM]	TGI (TK-10 renal) [µM]	TGI (SK-MEL-28 melanoma) [µM]	TGI (SNB-19 CNS) [µM]	TGI (KM12 colon) [µM]	TGI (UACC-257 melanoma) [µM]	TGI (HCT-15 colon) [µM]	TGI (LOX IMVI melanoma) [µM]	TGI (SW-620 colon) [µM]	TGI (NCI-H226 lung) [µM]	TGI (COLO 205 colon) [µM]	TGI (NCI-H23 lung) [µM]	TGI (SK-OV-3 ovarian) [µM]	TGI (SNB-75 CNS) [µM]	TGI (RXF 393 renal) [µM]	GI50 (RXF 393 renal)
CC(=O)[C@]1(C)[C@H](C)O[C@](C)(CO)[C@H]1O[Si](C)(C)c1ccccc1	> 100	> 100	> 100	> 100	> 100	> 100	> 100	> 100	> 100	84.6	44.4	> 100	> 100	> 100	81	> 100	> 100	46	–
CC(C)N(C(=O)c1ccc(NCc2cc(O)ccc2O)cc1)C(C)C	28.9	87.8	25.1	35	29.5	45.9	58.6	–	31.4	33.6	30.4	82	45.3	> 100	42.2	> 100	> 100	28.3	–
CCOC(=O)c1nc2cc(C(F)(F)F)ccc2nc1Oc1ccc(C(=O)OC)cc1	> 100	> 100	> 100	–	> 100	> 100	> 100	> 100	> 100	> 100	> 100	> 100	> 100	> 100	–	–	> 100	> 100	–
O=C(/C=C/c1ccc(O)cc1)c1cc(O)cc(O)c1	24.1	12.3	29.4	35	45.8	42.7	30.3	–	30.3	16.9	17.3	–	50.3	31.9	43.3	42.4	39.9	32	–
O=C1c2cscc2C(=O)c2c(OCc3ccccc3)ccc(OCc3ccccc3)c21	> 100	> 100	> 100	> 100	> 100	> 100	> 100	> 100	> 100	–	> 100	> 100	> 100	> 100	> 100	> 100	> 100	> 100	–
CN(C)C(=O)C(F)(F)C(c1ccc(C(F)(F)F)cc1)C1C(=O)N(C)C(=O)N(C)C1=O (stereo unspecified)	> 100	> 100	> 100	–	> 100	> 100	> 100	> 100	> 100	> 100	> 100	> 100	> 100	> 100	> 100	> 100	> 100	> 100	–
Cc1cc(S(=O)(=O)Nc2nc(N)nc(N(C)C)n2)c(SC(C(=O)O)c2ccccc2)cc1Cl (stereo unspecified)	–	> 10	> 10	> 10	> 10	> 10	> 10	> 10	> 10	> 10	> 10	> 10	> 10	> 10	> 10	> 10	> 10	> 10	–
Cc1ccc(N=Nc2c(C)nn(C(=O)CC(=O)Nc3ccc(Cl)cc3)c2C)cc1C	> 100	> 100	> 100	> 100	> 100	> 100	> 100	> 100	> 100	–	> 100	> 100	> 100	> 100	> 100	51.2	48.7	67.2	–
O=C(Oc1ccc(OC(Oc2ccccc2)c2ccccc2)cc1)c1ccccc1 (stereo unspecified)	> 31.6	> 31.6	> 31.6	> 31.6	> 31.6	31	> 31.6	> 31.6	> 31.6	–	> 31.6	> 31.6	> 31.6	> 31.6	24.4	> 31.6	> 31.6	> 100	–
CCOC(=O)NC(C(C(=O)OCC)C(=O)OCC)(C(F)(F)F)C(F)(F)F	> 100	> 100	> 100	> 100	> 100	> 100	> 100	> 100	> 100	> 100	> 100	> 100	> 100	> 100	> 100	–	> 100	> 100	–
N#Cc1c(-c2ccccc2)c(C#N)c(=S)n(C2OCC(O)C(O)C2O)c1N (stereo unspecified)	> 100	> 100	> 100	> 100	> 100	> 100	> 100	> 100	> 100	> 100	> 100	> 100	> 100	–	> 100	> 100	> 100	> 100	26.7 µM and > 100 µM

Reference: PubChem BioAssay (NCI)
